Source: patent US10179777B2, “3-(1H-benzimidazol-2-yl)-1H-pyridin-2-one derivatives” (MERCK PATENT GMBH, priority 2015, dated 2019)

Test system: ALK1-mediated SMAD1/5 phosphorylation in HUVEC cells
Assay: Cell-based immunofluorescence assay for ALK1-mediated SMAD1/5 phosphorylation in HUVEC cells
Conditions: Homo sapiens, 1.5 ng/ml BMP-9 with compound for 2 h, % nuclei with pSMAD1/5 signal, read-out: Smad 1/5 IC50
Description: In vitro cell-based Immunofluorescence-Assay for identification of inhibitors of ALK1-mediated SMAD1/5 phosphorylation in HUVEC cells:
ALK1 is a type I cell-surface receptor for the TGF-β superfamily of ligands. In adults ALK1 is mainly expressed on activated endothelial cells, e.g. during wound healing or in tumor angiogenesis. BMP9 and BMP10 are high affinity ligands for ALK1.
BMP9 and BMP10 binding leads to the phosphorylation of so-called Smad1 at Ser463 and Ser465 in the carboxy-terminal motif SSXS, as well as Smad5 and Smad8 at their corresponding sites. These phosphorylated Smads dimerize with the coactivating Smad4 and translocate to the nucleus, where they stimulate transcription of target genes.
Primary endothelial cells (HUVEC: Human Umbilical Vein Endothelial Cells; supplier Promocell) are cultivated in the culture medium obtained from Promocell (with supplements corresponding to 5% FCS) for maximum 5 passages, seeded into black 384-well culture plates with clear bottom (3000 cells/well/30 μl), and incubated for 16-24 hours at 37° C., 5% CO2 and 90% rH.
The following day cells were serum-starved for 2-3 h in order to stop TGF-ß-mediated signalling derived from ligands present in FBS. 1.5 ng/ml BMP-9 was than added in parallel with test compounds for 2 h at 37° C., 5% CO2 in order to identify compounds which block functional activity of ALK1 leading to phosphorylation and nuclear translocation of SMAD1/5/8.
After fixation (15 min 4% Formaldehyd in PBS) and permeabilization (10 min 0.2% Triton X-100 in PBS) an indirect immunocytochemical staining is performed with a specific Phospho-Smad1/5 (Ser463/465) antibody (Cell Signaling #9516) and Alexa488-labelled secondary anti-rabbit-IgG-antibody. DNA staining with Propidium Iodide allowed parallel cell counting. Image acquisition and analysis was performed on an MDS ImageXpress Ultra confocal High Content Reader using the image analysis software MetaXpress. Final read-out were % nuclei with a pSMAD1/5 signal above a defined background.
The final DMSO concentration in the assay was 0.5%. DMSO-treated HUVEC cells served as neutral control (=0%) and cells treated with 10 μM of a reference inhibitor described in a patent served as inhibitor control (=−100%). Raw data were normalised to the neutral and inhibitory references. The assay was performed as dose response (10 compound dilutions, 1 nM-30 μM).

**Q.** Which IC50 does the source give for Cc1[nH]c2ncccc2c1-c1c[nH]c(=O)c(-c2nc3cc(N4CCNCC4)ccc3[nH]2)c1 [Compound A45, 5-(2-Methyl-1H-pyrrolo[2,3-b]pyridin-3-yl)-3-(5-piperazin-1-yl-1H-benzimidazol-2-yl)-1H-pyridin-2-one] here?
**A.** 5 µM

**Q.** Which IC50 does the source give for O=c1[nH]cc(-c2ccnc3[nH]ccc23)cc1-c1nc2cc(N3CC4CCC(C3)N4)ccc2[nH]1 [Compound A46, 3-[6-(3,8-Diaza-bicyclo[3.2.1]oct-3-yl)-1H-benzimidazol-2-yl]-5-(1H-pyrrolo-[2,3-b]pyridin-4-yl)-1H-pyridin-2-one] here?
**A.** 4.4 µM

**Q.** How did the IC50 turn out when CN1C2CCC1CN(c1ccc3[nH]c(-c4cc(-c5ccnc6[nH]ccc56)c[nH]c4=O)nc3c1)C2 [Compound A53, 3-[6-(8-Methyl-3,8-diaza-bicyclo[3.2.1]oct-3-yl)-1H-benzimidazol-2-yl]-5-(1H-pyrrolo[2,3-b]pyridin-4-yl)-1H-pyridin-2-one] was run?
**A.** 2.8 µM
